Reference: ChEMBL document CHEMBL1201862, “PubChem BioAssay data set” (2004)
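48-hour exposure; five concentrations; linearly interpolated endpoints. Abbreviation: GI50, concentration required for 50% inhibition of growth.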 Calls of active or inactive are those of the source. Cut-off read from the data, not from the text of the source: active = GI50 up to about 1.1 µM and inactive = higher.

Tests used:
Assay in all cases: inhibition of tumour cell growth, NCI panel, 48 h
NCI-H460 = system: NCI-H460
COLO 205 = system: COLO 205
Malme-3M = system: Malme-3M
CAKI-1 = system: CAKI-1
HOP-62 = system: HOP-62
TK-10 = system: TK-10
SK-MEL-28 = system: SK-MEL-28
SF-539 = system: SF-539
KM12 = system: KM12
EKVX = system: EKVX
NCI-H23 = system: NCI-H23
UACC-62 = system: UACC-62
OVCAR-4 = system: OVCAR-4
SK-OV-3 = system: SK-OV-3
OVCAR-3 = system: OVCAR-3

Measured: GI50

O=C(N/N=C(/c1nc2ccc([N+](=O)[O-])cc2[nH]c1=O)C(O)c1ccc([N+](=O)[O-])cc1)c1ccncc1 (stereo not drawn)
inactive: NCI-H460 > 100 µM | COLO 205 > 100 µM | Malme-3M > 100 µM | CAKI-1 42 µM | HOP-62 69.7 µM | TK-10 > 100 µM | SK-MEL-28 > 100 µM | SF-539 75.5 µM | KM12 59 µM | EKVX > 100 µM | NCI-H23 > 100 µM | UACC-62 > 100 µM | OVCAR-4 > 100 µM | SK-OV-3 > 100 µM

N=C1SCCS1
inactive: NCI-H460 > 100 µM | COLO 205 > 100 µM | Malme-3M > 100 µM | CAKI-1 > 100 µM | OVCAR-3 > 100 µM | HOP-62 > 100 µM | TK-10 > 100 µM | SK-MEL-28 > 100 µM | SF-539 > 100 µM | KM12 > 100 µM | EKVX > 100 µM | NCI-H23 > 100 µM | UACC-62 > 100 µM | OVCAR-4 > 100 µM | SK-OV-3 > 100 µM

CO[C@@H]1C=C[C@@]23c4cc5c(cc4C(=O)O[C@H]2CN(C)[C@H]3C1)OCO5
inactive: NCI-H460 > 100 µM | COLO 205 > 100 µM | OVCAR-3 > 100 µM | TK-10 > 100 µM | SK-MEL-28 > 100 µM | SF-539 > 100 µM | KM12 > 100 µM | EKVX > 100 µM | NCI-H23 > 100 µM | UACC-62 > 100 µM | OVCAR-4 > 100 µM | SK-OV-3 > 100 µM

C=C(Br)C(C)(Br)CCC(Br)C(C)(C)Br (stereo not drawn)
inactive: NCI-H460 33.7 µM | COLO 205 19.3 µM | Malme-3M 28.1 µM | CAKI-1 > 100 µM | HOP-62 14.7 µM | TK-10 46.3 µM | SK-MEL-28 19.1 µM | SF-539 19.3 µM | KM12 40.1 µM | NCI-H23 36.4 µM | UACC-62 21 µM | OVCAR-4 39.4 µM | SK-OV-3 40.7 µM

C[N+](C)(C)CC(=O)N/N=C(/Cc1nc2ccc(Cl)cc2nc1O)C1=NS(=O)(=O)c2cc(S(N)(=O)=O)c(Cl)cc2N1
inactive: NCI-H460 > 100 µM | COLO 205 > 100 µM | Malme-3M > 100 µM | OVCAR-3 > 100 µM | HOP-62 > 100 µM | TK-10 > 100 µM | SK-MEL-28 > 100 µM | SF-539 > 100 µM | KM12 > 100 µM | EKVX 6.75 µM | NCI-H23 > 100 µM | UACC-62 > 100 µM | OVCAR-4 > 100 µM | SK-OV-3 > 100 µM

O=C1OC2C=CC1C1(CCOC1=O)C2 (stereo not drawn)
inactive: NCI-H460 > 100 µM | COLO 205 > 100 µM | Malme-3M > 100 µM | CAKI-1 > 100 µM | OVCAR-3 > 100 µM | HOP-62 > 100 µM | TK-10 > 100 µM | SK-MEL-28 > 100 µM | SF-539 > 100 µM | KM12 > 100 µM | EKVX > 100 µM | NCI-H23 > 100 µM | UACC-62 28.8 µM | OVCAR-4 > 100 µM

COc1ccccc1/C=C(\NC(=O)c1ccccc1)c1nc2ccc(Cl)cc2[nH]1
inactive: NCI-H460 33.8 µM | COLO 205 19.1 µM | Malme-3M 47.8 µM | CAKI-1 21.4 µM | OVCAR-3 18.5 µM | TK-10 29.2 µM | SK-MEL-28 27.1 µM | SF-539 56.2 µM | KM12 23.7 µM | EKVX 29.5 µM | NCI-H23 22.2 µM | UACC-62 17.5 µM | OVCAR-4 22.9 µM | SK-OV-3 37.2 µM

COc1ccccc1OCC(COC(=O)Nc1ccc(C)cc1)OC(=O)Nc1ccc(C)cc1 (stereo not drawn)
inactive: NCI-H460 16.7 µM | COLO 205 18.2 µM | Malme-3M 17.4 µM | CAKI-1 13.1 µM | OVCAR-3 17.3 µM | HOP-62 38.5 µM | TK-10 18.4 µM | SK-MEL-28 23.7 µM | SF-539 19.1 µM | KM12 20.6 µM | EKVX 25 µM | NCI-H23 23.2 µM | UACC-62 15.3 µM | SK-OV-3 24.7 µM

[O-][n+]1c2cc(CBr)c(CBr)cc2[n+]([O-])c2c(O)cccc21
inactive: NCI-H460 1.91 µM | COLO 205 1.77 µM | Malme-3M 1.91 µM | CAKI-1 2.87 µM | OVCAR-3 2.22 µM | HOP-62 20.1 µM | TK-10 6.07 µM | SK-MEL-28 1.76 µM | KM12 1.9 µM | EKVX 6.05 µM | NCI-H23 2.72 µM | UACC-62 1.79 µM | OVCAR-4 1.8 µM | SK-OV-3 4.86 µM

CC1=CCN(c2ccccn2)OC1c1ccccc1 (stereo not drawn)
inactive: NCI-H460 > 100 µM | COLO 205 > 100 µM | Malme-3M > 100 µM | CAKI-1 > 100 µM | OVCAR-3 > 100 µM | HOP-62 > 100 µM | SK-MEL-28 > 100 µM | SF-539 > 100 µM | KM12 > 100 µM | EKVX > 100 µM | NCI-H23 > 100 µM | UACC-62 > 100 µM | OVCAR-4 > 100 µM | SK-OV-3 > 100 µM
